Measurements reported in US20090042238A1, “Method of evaluating cell function, system for evaluating cell function, fluorescent microscope system, phototherapy method and phototherapy system” (NIKON CORPORATION, priority 2006, published 2009).

Tested on: mitochondria in living cells
Experiment: evaluation of cell function (phototoxic property) with confocal fluorescence microscope system
Assay type: cell-based
From the text: The following describes an example of the evaluation of cell function according to the present invention, performed with the confocal fluorescence microscope system of the First Embodiment.
RH123, used as a fluorescent dye, was applied to the mitochondria in living cells to prepare a specimen. The specimen was two-dimensionally scanned by irradiating an argon laser (488 nm) emitted in a predetermined intensity from the excitation light source 11, so as to obtain a fluorescence image of one frame.
FIG. 8(A) is the actual first fluorescence image obtained. Predetermined positions of the mitochondria (stained area) and the cellular cytoplasm (reference point) were specified by rectangular shaped frames, and a mean value of brightness values of the pixels in each of these specific areas was determined. These mean values were used as the brightness value of the mitochondria, and the brightness value of the cellular cytoplasm, respectively.
This procedure of obtaining the fluorescence image was repeated under the same conditions, and the brightness values of the mitochondria and the cellular cytoplasm were measured. FIG. 8(B) is the actual 50th fluorescence image, and FIG. 8(C) is the actual 150th fluorescence image obtained. It can be seen from FIG. 8 that the fluorescence image indeed undergoes changes as described in the First Embodiment with reference to FIG. 2.

Rhodamin 123 [RH123]
frame number in which the brightness value of the cellular cytoplasm has the peak (functional depression of the mitochondria complete) (argon laser (488 nm) of a predetermined intensity, repeated imaging, FIG. 9(A)): 50
frame number in which the brightness value of the cellular cytoplasm has the peak (laser beam having a weaker intensity than in FIG. 9(A), otherwise same conditions, FIG. 9(B)): 70
